Source: US6395728B2, “Method of treatment and pharmaceutical composition” (Novartis AG, priority 1999, dated 2002)

System: diabetic SHRs
Assay: Survival of streptozotocin-induced diabetic SHRs under drug treatment
Assay type: in vivo, rat
Settings: week 21 of treatment
Method: Diabetes is induced in SHRs aged about 6 to 8 weeks weighing about 250 to 300 g by treatment e.g. with streptozotocin. The drugs are administered by twice daily average. Untreated diabetic SHRs are used as control group (group 1). Other groups of diabetic SHRs are treated with 30 mg/kg of valsartan (group 2), with 20 mg/kg of verapamil (group 3) and with a combination of 20 mg/kg of valsartan and 15 mg/kg of verapamil (group 4). On a regular basis, besides other parameters the survival rate after 21 weeks of treatment is being monitored.

Compound | Survival Rate (20 mg/kg of verapamil (group 3)) | Survival Rate (30 mg/kg of valsartan (group 2))
COc1ccc(CCN(C)CCCC(C#N)(c2ccc(OC)c(OC)c2)C(C)C)cc1OC (centres unmarked) [verapamil] | 42.9% | –
CCCCC(=O)N(Cc1ccc(-c2ccccc2-c2nnn[nH]2)cc1)[C@H](C(=O)O)C(C)C [valsartan, (S)-N-(1-carboxy-2-methyl-prop-1-yl)-N-pentanoyl-N-[2′(1H-tetrazol-5-yl)biphenyl-4-yl-methyl]amine] | – | 45.9%
